Laboratory results reported in US7034056B2, “Aryl and biaryl compounds having MCH modulatory activity” (Pharmacopeia Drug Discovery, inc., priority 2001, dated 2006).
pKi: −log10 of the molar value.

target: T1, hMCHR (MCH receptor) (Homo sapiens, UniProt Q99705); test: MCH Assay PCOP Protocol ([125I]-MCH SPA binding to hMCHR-CHO membranes); details: [125I]-MCH binding to hMCHR-CHO membranes; class symbols for ranges of Ki; read-out: Activity (Ki range);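 also: A 0.4–50 nM B 51–500 nM C 501–2500 nM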
T1 construct: (or internally produced); host or cells: CHO (Chinese hamster ovary) cells, membrane preparation
T1 sequence (Q99705 whole entry): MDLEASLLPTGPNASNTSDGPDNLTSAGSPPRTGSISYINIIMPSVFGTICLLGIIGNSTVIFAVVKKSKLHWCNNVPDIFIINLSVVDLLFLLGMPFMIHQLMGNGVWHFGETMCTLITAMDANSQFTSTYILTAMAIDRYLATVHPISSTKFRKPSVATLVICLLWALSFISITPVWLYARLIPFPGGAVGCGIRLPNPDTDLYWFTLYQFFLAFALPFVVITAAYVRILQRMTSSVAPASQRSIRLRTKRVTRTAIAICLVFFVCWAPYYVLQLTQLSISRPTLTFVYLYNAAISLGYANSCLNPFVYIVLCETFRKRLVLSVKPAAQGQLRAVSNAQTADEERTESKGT
Method in brief: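 SPA binding with 10 μg hMCHR-CHO membranes and WGA-SPA beads in 25 mM HEPES pH 7.4, 10 mM NaCl, 10 mM MgCl2, 5 mM MnCl2, 0.1% BSA.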

| pKi | Compound |
| --- | --- |
| 5.60 to 6.30 | CN(C)C1CCN(CCC(CNC(=O)Nc2cccc(C(F)(F)F)c2)c2ccc(Cl)c(Cl)c2)C1 (centres unmarked) [Example 306] |
| 5.60 to 6.30 | O=C(NCC(CCN1CCNCC1)c1ccc(Cl)c(Cl)c1)Nc1ccc(Cl)c(Cl)c1 (centres unmarked) [Example 307] |
| 5.60 to 6.30 | O=C(NCC(CCN1CCNCC1)c1ccc(Cl)c(Cl)c1)Nc1cc(Cl)cc(Cl)c1 (centres unmarked) [Example 308] |
| 5.60 to 6.30 | O=C(NCC(CCN1CCNCC1)c1ccc(Cl)c(Cl)c1)Nc1cccc(C(F)(F)F)c1 (centres unmarked) [Example 309] |
| 5.60 to 6.30 | CN(C)CCCNCCC(CNC(=O)Nc1cccc(C(F)(F)F)c1)c1ccc(Cl)c(Cl)c1 (centres unmarked) [Example 310] |
| 6.30 to 7.29 | O=C(NCC(CCN1CCC(N2CCCCC2)CC1)c1ccc(Cl)c(Cl)c1)Nc1cccc(Br)c1 (centres unmarked) [Example 312] |
| 6.30 to 7.29 | O=C(NCC(CCNC1CCC1)c1ccc(Cl)c(Cl)c1)Nc1cc(C(F)(F)F)cc(C(F)(F)F)c1 (centres unmarked) [Example 314] |
| 6.30 to 7.29 | O=C(NCC(CCN1CCC(N2CCCCC2)CC1)c1ccc(Cl)c(Cl)c1)Nc1ccc([N+](=O)O)cc1 (centres unmarked) [Example 315] |
| 5.60 to 6.30 | CCNC(=O)NC1CCN(CCC(CNC(=O)Nc2cc(Cl)cc(Cl)c2)c2ccc(Cl)c(Cl)c2)C1 (centres unmarked) [Example 316] |
| 5.60 to 6.30 | O=C(NCC(CCN1CCC(N2CCCCC2)CC1)c1ccc(Cl)c(Cl)c1)Nc1cccc([N+](=O)[O-])c1 (centres unmarked) [Example 317] |
| 5.60 to 6.30 | O=C(NCC(CCNC1CCNC1)c1ccc(Cl)c(Cl)c1)Nc1cc(C(F)(F)F)cc(C(F)(F)F)c1 (centres unmarked) [Example 318] |
| 5.60 to 6.30 | O=C(NCC(CCNCc1ccc2c(c1)OCO2)c1ccc(Cl)c(Cl)c1)Nc1cc(C(F)(F)F)cc(C(F)(F)F)c1 (centres unmarked) [Example 319] |
| 5.60 to 6.30 | O=C(NCC(CCNCCc1c[nH]c2ccccc12)c1ccc(Cl)c(Cl)c1)Nc1cc(C(F)(F)F)cc(C(F)(F)F)c1 (centres unmarked) [Example 320] |
| 5.60 to 6.30 | CCNC(=O)NC1CCN(CCC(CNC(=O)Nc2cc(Cl)cc(Cl)c2)c2ccc(Cl)cc2)C1 (centres unmarked) [Example 321] |
| 5.60 to 6.30 | NC1CCN(CCC(CNC(=O)Nc2cc(Cl)cc(Cl)c2)c2ccc(Cl)c(Cl)c2)CC1 (centres unmarked) [Example 322] |
| 5.60 to 6.30 | CCNC(=O)NC1CCN(CCC(CNC(=O)Nc2cc(Cl)cc(Cl)c2)c2ccc(Cl)c(Cl)c2)CC1 (centres unmarked) [Example 323] |
| 5.60 to 6.30 | Cc1ccc(C(CCN2CCC(N)CC2)CNC(=O)Nc2cc(Cl)cc(Cl)c2)cc1 (centres unmarked) [Example 324] |
| 5.60 to 6.30 | O=C(NCC(CCN1CCC(N2CCCCC2)CC1)c1ccc(Cl)c(Cl)c1)Nc1ccc(Cl)cc1 (centres unmarked) [Example 325] |
| 5.60 to 6.30 | O=C(NCC(CCN1CCC(N2CCCCC2)CC1)c1ccc(Cl)c(Cl)c1)Nc1ccc(Br)cc1 (centres unmarked) [Example 326] |
| 5.60 to 6.30 | CCNC(=O)NC1CCN(CCC(CNC(=O)Nc2cc(Cl)cc(Cl)c2)c2ccc(C)cc2)CC1 (centres unmarked) [Example 327] |
| 7.30 to 9.40 | O=C(NCC(CCNC1CCCC1)c1ccc(Cl)c(Cl)c1)Nc1cc(C(F)(F)F)cc(C(F)(F)F)c1 (centres unmarked) [Example 328] |
| 6.30 to 7.29 | O=C(NCC(CCN1CCCC1)c1ccc(Cl)cc1)Nc1cc(C(F)(F)F)cc(C(F)(F)F)c1 (centres unmarked) [Example 329] |
| 6.30 to 7.29 | O=C(NCC(CCNCCc1c[nH]c2ccccc12)c1ccc(Cl)cc1)Nc1cc(C(F)(F)F)cc(C(F)(F)F)c1 (centres unmarked) [Example 330] |
| 6.30 to 7.29 | COc1ccc(C(CCNCCc2c[nH]c3ccccc23)CNC(=O)Nc2cc(C(F)(F)F)cc(C(F)(F)F)c2)cc1 (centres unmarked) [Example 331] |
| 6.30 to 7.29 | CN(C)CCNCCC(CNC(=O)Nc1cc(C(F)(F)F)cc(C(F)(F)F)c1)c1ccc(Cl)c(Cl)c1 (centres unmarked) [Example 332] |
| 6.30 to 7.29 | O=C(NCC(CCNCCc1c[nH]c2ccccc12)c1cccc(Cl)c1)Nc1cc(C(F)(F)F)cc(C(F)(F)F)c1 (centres unmarked) [Example 333] |
| 5.60 to 6.30 | O=C(NCC(CCN1CCCC1)c1cccc(Cl)c1)Nc1cc(C(F)(F)F)cc(C(F)(F)F)c1 (centres unmarked) [Example 334] |
| 5.60 to 6.30 | COc1ccc(C(CCN2CCCC2)CNC(=O)Nc2cc(C(F)(F)F)cc(C(F)(F)F)c2)cc1 (centres unmarked) [Example 335] |
| 5.60 to 6.30 | Cc1cccc(C(CCNCCc2c[nH]c3ccccc23)CNC(=O)Nc2cc(C(F)(F)F)cc(C(F)(F)F)c2)c1 (centres unmarked) [Example 336] |
